Species on record: Rattus norvegicus
Assay: DrugMatrix - Regimen: Daily Repeat
Format: toxicity, organism-based, Sprague-Dawley
Set-up: regimen Daily Repeat, gender Male, age 6-8 weeks
Conditions: in vivo, po, route oral GAVAGE, vehicle .5 % CMC; for ABSOLUTE BASOPHIL / ABSOLUTE EOSINOPHIL / ABSOLUTE LYMPHOCYTE / ABSOLUTE MONOCYTE / ABSOLUTE SEGMENTED NEUTROPHIL / BASOPHIL / ERYTHROCYTE COUNT / HEMATOCRIT / HEMOGLOBIN / LYMPHOCYTE / MEAN CORPUSCULAR HEMOGLOBIN / MEAN CORPUSCULAR HEMOGLOBIN CONCENTRATION / MEAN CORPUSCULAR VOLUME / NEUTROPHIL / NUCLEATED RED BLOOD CELLS / PLATELET COUNT: tissue Blood; for ALANINE AMINOTRANSFERASE / ALKALINE PHOSPHATASE / ASPARTATE AMINOTRANSFERASE / BLOOD UREA NITROGEN / CHOLESTEROL / CREATINE PHOSPHOKINASE / CREATININE / GLUCOSE / LACTATE DEHYDROGENASE / LIPASE / PHOSPHORUS / POTASSIUM / SODIUM / TOTAL BILIRUBIN / TOTAL PROTEIN / CARBON DIOXIDE: tissue Plasma
[1] = 0.06 mg/kg, 120 h, dose level Low, time 5 day
[2] = […], 72 h, dose 0.25 mg/Kg, dose level High, time 3 day
[3] = […], 120 h, dose 0.25 mg/Kg, dose level High, time 5 day

CC(=O)CC(c1ccccc1)c1c(O)c2ccccc2oc1=O (stereo not given) [WARFARIN]
ABSOLUTE BASOPHIL [1]: 0 CELLS/uL
ABSOLUTE EOSINOPHIL [1]: 123.33 CELLS/uL
ABSOLUTE LYMPHOCYTE [1]: 12690 CELLS/uL
ABSOLUTE MONOCYTE [1]: 175.33 CELLS/uL
ABSOLUTE SEGMENTED NEUTROPHIL [1]: 1111.33 CELLS/uL
BASOPHIL [1]: 0%
ERYTHROCYTE COUNT [1]: 5.59 x10E6/uL
HEMATOCRIT [1]: 35.53%
HEMOGLOBIN [1]: 13.5 G/DL
LYMPHOCYTE [1]: 90%
MEAN CORPUSCULAR HEMOGLOBIN [1]: 24.2 pg
MEAN CORPUSCULAR HEMOGLOBIN CONCENTRATION [1]: 38 G/DL
MEAN CORPUSCULAR VOLUME [1]: 63.67 fL
NEUTROPHIL [1]: 8%
NUCLEATED RED BLOOD CELLS [1]: 0 /100WBC
PLATELET COUNT [1]: 1320.67 x10E3/uL
ALANINE AMINOTRANSFERASE [1]: 47.33 u/L
ALKALINE PHOSPHATASE [1]: 339.67 u/L
ASPARTATE AMINOTRANSFERASE [1]: 76.33 u/L
BLOOD UREA NITROGEN [1]: 16 mg/dL
CHOLESTEROL [1]: 66.67 mg/dL
CREATINE PHOSPHOKINASE [1]: 293.33 u/L
CREATININE [1]: 0.14 mg/dL
GLUCOSE [1]: 149 mg/dL
LACTATE DEHYDROGENASE [1]: 203 u/L
LIPASE [1]: 9.33 u/L
PHOSPHORUS [1]: 13.2 mg/dL
POTASSIUM [1]: 6.78 MEQ/L
SODIUM [1]: 144.27 MEQ/L
TOTAL BILIRUBIN [1]: 0.2 mg/dL
TOTAL PROTEIN [1]: 6 G/DL
ABSOLUTE BASOPHIL [2]: 0 CELLS/uL
ABSOLUTE EOSINOPHIL [2]: 246.33 CELLS/uL
ABSOLUTE LYMPHOCYTE [2]: 13716 CELLS/uL
ABSOLUTE MONOCYTE [2]: 364 CELLS/uL
ABSOLUTE SEGMENTED NEUTROPHIL [2]: 1007 CELLS/uL
BASOPHIL [2]: 0%
ERYTHROCYTE COUNT [2]: 5.82 x10E6/uL
HEMATOCRIT [2]: 37.73%
HEMOGLOBIN [2]: 14.07 G/DL
LYMPHOCYTE [2]: 89.33%
MEAN CORPUSCULAR HEMOGLOBIN [2]: 24.2 pg
MEAN CORPUSCULAR HEMOGLOBIN CONCENTRATION [2]: 37.33 G/DL
MEAN CORPUSCULAR VOLUME [2]: 64.87 fL
NEUTROPHIL [2]: 6.67%
NUCLEATED RED BLOOD CELLS [2]: 0 /100WBC
PLATELET COUNT [2]: 1397.33 x10E3/uL
ALANINE AMINOTRANSFERASE [2]: 57 u/L
ALKALINE PHOSPHATASE [2]: 354 u/L
ASPARTATE AMINOTRANSFERASE [2]: 82 u/L
BLOOD UREA NITROGEN [2]: 15.33 mg/dL
CARBON DIOXIDE [2]: 25.67 mmol/L
CHOLESTEROL [2]: 86 mg/dL
CREATINE PHOSPHOKINASE [2]: 467.67 u/L
CREATININE [2]: 0.18 mg/dL
GLUCOSE [2]: 156 mg/dL
LACTATE DEHYDROGENASE [2]: 145 u/L
LIPASE [2]: 10.67 u/L
PHOSPHORUS [2]: 13.7 mg/dL
POTASSIUM [2]: 6.91 MEQ/L
SODIUM [2]: 145.27 MEQ/L
TOTAL BILIRUBIN [2]: 0.23 mg/dL
TOTAL PROTEIN [2]: 5.93 G/DL
ABSOLUTE BASOPHIL [3]: 0 CELLS/uL
ABSOLUTE EOSINOPHIL [3]: 86.67 CELLS/uL
ABSOLUTE LYMPHOCYTE [3]: 13093.33 CELLS/uL
ABSOLUTE MONOCYTE [3]: 240.67 CELLS/uL
ABSOLUTE SEGMENTED NEUTROPHIL [3]: 779.33 CELLS/uL
BASOPHIL [3]: 0%
ERYTHROCYTE COUNT [3]: 5.78 x10E6/uL
HEMATOCRIT [3]: 36.23%
HEMOGLOBIN [3]: 13.7 G/DL
LYMPHOCYTE [3]: 92%
MEAN CORPUSCULAR HEMOGLOBIN [3]: 23.7 pg
MEAN CORPUSCULAR HEMOGLOBIN CONCENTRATION [3]: 37.87 G/DL
MEAN CORPUSCULAR VOLUME [3]: 62.63 fL
NEUTROPHIL [3]: 5.67%
NUCLEATED RED BLOOD CELLS [3]: 0 /100WBC
PLATELET COUNT [3]: 1328.33 x10E3/uL
ALANINE AMINOTRANSFERASE [3]: 45.33 u/L
ALKALINE PHOSPHATASE [3]: 285 u/L
ASPARTATE AMINOTRANSFERASE [3]: 79.67 u/L
BLOOD UREA NITROGEN [3]: 17.33 mg/dL
CARBON DIOXIDE [3]: 26.67 mmol/L
CHOLESTEROL [3]: 69.67 mg/dL
CREATINE PHOSPHOKINASE [3]: 518.33 u/L
CREATININE [3]: 0.2 mg/dL
GLUCOSE [3]: 156.33 mg/dL
LACTATE DEHYDROGENASE [3]: 92.67 u/L
LIPASE [3]: 8.67 u/L
PHOSPHORUS [3]: 13.27 mg/dL
POTASSIUM [3]: 6.55 MEQ/L
SODIUM [3]: 147.93 MEQ/L
TOTAL BILIRUBIN [3]: 0.17 mg/dL
TOTAL PROTEIN [3]: 6.33 G/DL

Source: ChEMBL document CHEMBL3885881, “DrugMatrix”
